Laboratory results taken from patent US20260373119A1, “NOVEL COMPOUND, AND COMPOSITION FOR PREVENTING OR TREATING HER2-POSITIVE CANCER, COMPRISING SAME” (EWHA UNIVERSITY - INDUSTRY COLLABORATION FOUNDATION, priority 2022, published 2026).

Assays:
Ki-67 = assay: IHC of NCI-N87 xenograft tumors, Ki-67; format: in vivo, mice; conditions: vs control group
Experimental: (§1) Xenograft mice were generated to evaluate the anticancer effects of the candidate compound. NCI-N87 and JIMT-1 cells (5×10^6 cells), dissolved in 100 μL of 1× phosphate-buffered saline (PBS), were subcutaneously injected into the right flanks of 5-week-old female athymic nude mice (Envigo, USA) or 4-week-old female NOD-SCID mice (Koatech, South Korea). When the tumors reached a volume of 90-100 mm^3, the mice were randomized into designated groups. For the NCI-N87 xenograft, intravenous administration was performed six times at 3-day intervals. For the JIMT-1 xenograft, intraperitoneal administration was performed eight times at 3-day intervals. […] Tumor size changes were monitored until the mean tumor size in the control group reached 2,000-2,500 mm^3. On day 28 for the NCI-N87 xenograft and day 46 for the JIMT-1 xenograft, the mice were sacrificed, and tumors were excised to determine relative tumor sizes. Tumor length (L) and width (W) were measured with calipers, and tumor volume was calculated using the formula: […]
(§2) For immunohistochemistry (IHC) analysis, tumors from the xenograft models were prepared as paraffin-embedded sections. […] The control group was counterstained with hematoxylin, and the IHC staining was evaluated under an optical microscope at 200× magnification.

[1] = tested on: T47D (HER2-negative breast cancer cell line); assay: antiproliferative effect, T47D; format: cell-based; conditions: Homo sapiens, 72 hours
Experimental: (§3) The antiproliferative effects were measured after treating Compounds 1 to 22 for 72 hours on HCT15 (HER2-positive colorectal cancer cell line), NCI-N87 (HER2-positive gastric cancer cell line), T47D (HER2-negative breast cancer cell line), and HeLa (HER2-negative cervical cancer cell line). As a result, strong antiproliferative effects were generally observed in the NCI-N87 cell line (Table 2).
(§4) The antiproliferative effects of the candidate compound, resulting from HER2 inhibition, were evaluated. Specifically, to confirm the anticancer effects of the candidate compound, cancer cells were seeded at a density of 10^4 cells/well in a 96-well cell culture plate for 20 hours. The cells were starved in serum-free media for 4 hours, followed by replacement with media containing the compound at specified concentrations. The cells were then incubated for 72 hours under conditions of 5% CO2 at 37 °C. Cell viability was determined by adding 5 μL of EZ-CytoX to each well and measuring absorbance at 450 nm. The measurements were performed using an ELISA Microplate Reader (VersaMax, Molecular Devices).

[2] = tested on: HER2 and downstream signaling (phosphorylated AKT and MAPK); assay: HER2 expression and downstream signaling, TZMB-sensitive and -resistant cells; format: cell-based
Experimental: For western blot analysis, cells were seeded in a 6-well plate and lysed in 1×RIPA lysis buffer (Cell Signaling, USA) containing 1% 0.1 M [COMPOUND LEFT OUT] and 1% 100× protease inhibitor cocktail solution (Genedepot, USA). Total protein levels were standardized using the Pierce™ BCA Protein Assay Kit (Thermo Fisher Scientific, USA) and a microplate reader (Tecan Group Ltd., Switzerland). A total of 20 μg of protein was loaded onto a 10-15% SDS-PAGE acrylamide gel and transferred to a 0.2 μm PVDF membrane (Pall Life Science, USA). The membrane was blocked with 5% skim milk or 5% BSA, and the membrane was cultured with primary antibodies (purchased from Thermo Fisher, Cell Signaling, Santa Cruz, Novus, or MBL) at room temperature for 3 hours or overnight at 4 °C. The blot was washed three times with Tris-buffered saline containing 0.1% Tween20 (1×TBST) and incubated with an HRP-conjugated secondary antibody (GeneTex, USA). Protein bands were detected using ECL solution reagents (GE Healthcare, USA) and the LAS-3000 imaging system (Fuji Photo Film Co., Ltd., Japan), and captured images were analyzed using Multi-Gauge software (Fuji Photo Film Co. Ltd.). The preparation of cell lysates for subsequent analyses was performed using the same method as described for western blot analysis.
The ability of the candidate compound to overcome trastuzumab resistance was evaluated.

HER2 = assay: JIMT-1 xenograft, HER2 levels; format: in vivo, mice; conditions: 4 mg/kg
Experimental: as §1, §2

permeability = format: in vitro ADME
c-RAF = c-RAF (Homo sapiens, UniProt P04049); assay: kinase profiling, c-RAF; format: biochemical; conditions: read-out: In vitro kinase inhibitory activity (%)
Experimental: Kinase inhibitory activity of the candidate compound at 10 μM and 25 μM was assessed using Eurofins Kinase Profiling Services. Inhibitory effects on c-RAF, EGFR, ErbB2, ErbB4, and PI3 kinase were analyzed according to the Kinase Profiler Service Assay protocol.

[3] = tested on: HCT15 (HER2-positive colorectal cancer cell line); assay: antiproliferative effect, HCT15; format: cell-based; conditions: Homo sapiens, HCT-15, 72 hours
Experimental: as §3, §4

JIMT-1 xenograft = assay: JIMT-1 xenograft, tumor growth; format: in vivo, mice; conditions: 4 mg/kg, intraperitoneal, eight times at 3-day intervals
Experimental: as §1

[4] = tested on: HeLa (HER2-negative cervical cancer cell line); assay: antiproliferative effect, HeLa; format: cell-based; conditions: Homo sapiens, 72 hours
Experimental: as §3, §4

[5] = biological target: MED23 wild-type (FLAG-tagged) (Homo sapiens, UniProt Q9ULK4); assay: LC-MS/MS protein-small molecule interaction, wild-type MED23; format: binding; conditions: FLAG pulldown, LC-MS/MS
Experimental: HEK293 cells were seeded in a […] and incubated until they reached 70-80% confluency. The cells were transfected with p3Xflag-myc-CMV26-MED23^WT and p3Xflag-myc-CMV26-MED23^D400A/H449G plasmids for 24 hours, followed by lysis to obtain protein extracts. To isolate the candidate compound (YK1) bound to MED23, total lysates were incubated with YK1 for 4 hours and subsequently subjected to pulldown using FLAG-agarose beads (Sigma Aldrich, USA). The precipitated beads were washed at least three times to completely remove unbound compounds. To separate the candidate compound from the precipitated MED23, 50 μL of the sample was extracted with 1 mL of acetonitrile and centrifuged at 13,000 rpm at 4 °C for 10 minutes. The supernatant (1,000 μL) from each sample was transferred to a new tube and dried under nitrogen gas at 37 °C. For YK1 analysis, the residue was dissolved in 50 μL of ACN and vortexed for 10 minutes. […] The mixture was then extracted with 450 μL of ACN by ultrasonic treatment and vortex mixing. The candidate compound bound to MED23 was finally analyzed using an Agilent 6460 triple quadrupole mass spectrometer (Agilent Technologies, USA).

MED23-IRF7 PPI = biological target: T1, MED23-IRF7 PPI (Homo sapiens, UniProt Q9ULK4); assay: immunoprecipitation, MED23-IRF7 PPI; format: cell-based
T1 construct: co-immunoprecipitation of IRF7, probably endogenous
Experimental: NCI-N87 cells from a gastric cancer cell line were seeded in a 100 mm cell culture dish and cultured until they reached 60-70% confluence. The cultured cells were transfected with p3Xflag-myc-CMV26-empty or p3Xflag-myc-CMV26-MED23^WT plasmids using Lipofectamine® 2000 (Invitrogen, USA). After transfection, YK1 (5 μM) was added 12 hours post-transfection, and the cells were cultured for 12 hours. A total of 750 μg of cell lysate was incubated with 20 μL of FLAG-agarose bead slurry (Sigma Aldrich, USA) on a rotator at 4 °C for 4 hours. The sample was centrifuged at 12,000 rpm for 1 minute to precipitate the beads. After removing the supernatant, the remaining beads were washed three times with 200 μL of lysis buffer (RIPA).
After removing the final supernatant, the beads were eluted by boiling with 2× sample buffer at 98 °C for 5 minutes. The immunoprecipitated proteins were loaded, separated by SDS-PAGE, and analyzed by Western blotting.

c-RAF, sequence (P04049 whole entry): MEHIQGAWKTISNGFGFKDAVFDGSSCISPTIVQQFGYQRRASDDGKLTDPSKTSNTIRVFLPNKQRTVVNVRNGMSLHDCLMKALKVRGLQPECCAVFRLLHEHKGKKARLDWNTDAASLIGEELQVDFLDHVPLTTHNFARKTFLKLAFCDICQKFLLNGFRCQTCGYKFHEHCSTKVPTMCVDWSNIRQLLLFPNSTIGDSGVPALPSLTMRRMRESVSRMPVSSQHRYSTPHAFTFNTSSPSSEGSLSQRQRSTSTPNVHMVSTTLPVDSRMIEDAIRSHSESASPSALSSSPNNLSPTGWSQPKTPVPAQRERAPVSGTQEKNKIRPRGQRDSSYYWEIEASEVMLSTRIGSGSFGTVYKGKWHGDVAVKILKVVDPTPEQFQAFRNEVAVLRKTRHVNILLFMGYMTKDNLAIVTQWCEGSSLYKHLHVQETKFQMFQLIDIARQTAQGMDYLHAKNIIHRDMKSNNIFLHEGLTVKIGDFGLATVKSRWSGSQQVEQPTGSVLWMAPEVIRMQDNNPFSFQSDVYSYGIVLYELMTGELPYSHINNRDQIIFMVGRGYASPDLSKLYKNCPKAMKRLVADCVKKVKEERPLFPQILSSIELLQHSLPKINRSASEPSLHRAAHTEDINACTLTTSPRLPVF
MED23 wild-type (FLAG-tagged), sequence (Q9ULK4 whole entry): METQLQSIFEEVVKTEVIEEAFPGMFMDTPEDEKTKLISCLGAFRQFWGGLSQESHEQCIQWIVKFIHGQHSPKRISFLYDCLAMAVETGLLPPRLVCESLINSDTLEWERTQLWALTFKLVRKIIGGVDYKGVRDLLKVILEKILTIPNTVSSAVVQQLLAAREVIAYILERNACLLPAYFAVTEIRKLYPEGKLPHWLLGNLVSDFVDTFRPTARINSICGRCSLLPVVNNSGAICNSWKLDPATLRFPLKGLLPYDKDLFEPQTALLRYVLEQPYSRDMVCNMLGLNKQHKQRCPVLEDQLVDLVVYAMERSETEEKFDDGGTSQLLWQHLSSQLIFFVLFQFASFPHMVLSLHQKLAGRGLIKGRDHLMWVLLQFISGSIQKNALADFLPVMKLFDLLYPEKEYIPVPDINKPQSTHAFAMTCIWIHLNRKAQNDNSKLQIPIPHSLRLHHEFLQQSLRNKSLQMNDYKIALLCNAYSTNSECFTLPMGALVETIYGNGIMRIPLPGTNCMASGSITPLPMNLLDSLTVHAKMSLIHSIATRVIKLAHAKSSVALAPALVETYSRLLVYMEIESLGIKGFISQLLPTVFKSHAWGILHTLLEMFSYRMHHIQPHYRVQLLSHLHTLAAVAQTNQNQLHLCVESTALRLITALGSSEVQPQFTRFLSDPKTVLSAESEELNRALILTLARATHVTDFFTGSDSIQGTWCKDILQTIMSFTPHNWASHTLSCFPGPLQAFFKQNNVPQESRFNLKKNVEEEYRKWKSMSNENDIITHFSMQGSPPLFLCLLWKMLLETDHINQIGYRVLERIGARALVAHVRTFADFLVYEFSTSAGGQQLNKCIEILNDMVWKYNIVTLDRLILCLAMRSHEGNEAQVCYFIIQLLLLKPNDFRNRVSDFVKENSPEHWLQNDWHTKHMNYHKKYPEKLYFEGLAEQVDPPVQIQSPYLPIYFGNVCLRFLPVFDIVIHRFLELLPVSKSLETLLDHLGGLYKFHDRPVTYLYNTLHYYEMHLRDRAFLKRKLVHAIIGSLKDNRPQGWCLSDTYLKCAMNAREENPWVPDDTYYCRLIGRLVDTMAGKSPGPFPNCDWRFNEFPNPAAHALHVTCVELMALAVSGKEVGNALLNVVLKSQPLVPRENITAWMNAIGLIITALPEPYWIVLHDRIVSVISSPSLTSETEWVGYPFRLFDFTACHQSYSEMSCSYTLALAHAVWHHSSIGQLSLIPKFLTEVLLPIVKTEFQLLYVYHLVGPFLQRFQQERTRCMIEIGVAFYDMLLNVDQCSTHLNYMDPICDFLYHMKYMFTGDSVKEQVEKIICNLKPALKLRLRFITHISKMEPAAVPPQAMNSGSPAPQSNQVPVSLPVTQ
T1 sequence (Q9ULK4 whole entry): as above

Structure (SMILES): CC(=O)N1N=C(c2cccc(O)c2)CC1c1ccc(Cl)cc1 (stereo not drawn) [Compound 15, 1-[5-(4-Chlorophenyl)-3-(3-hydroxyphenyl)-4,5-dihydropyrazol-1-yl]-ethanone]
- proliferation marker Ki-67 (Ki-67): significant decrease
- IC50 [1]: 9.99 ± 0.2 µM
- HER2 expression and downstream signaling [2]: significantly downregulated HER2 expression and downstream signaling, including phosphorylated AKT and MAPK
- HER2 levels (HER2): significant reduction in HER2 levels
- permeability (permeability): reasonable
- inhibition at 10 µM (c-RAF; 10 μM): 3%
- inhibition at 25 µM (c-RAF; 25 μM): 10%
- IC50 [3]: 7.66 ± 0.04 µM
- tumor growth and volume (JIMT-1 xenograft): significant decrease in tumor growth and volume
- IC50 [4]: 16.92 ± 0.1 µM
- binding to wild-type MED23 [5]: able to bind to wild-type MED23
- PPI inhibitory effect on MED23-IRF7 (MED23-IRF7 PPI): did not inhibit these PPIs
